Measurements taken from PubChem BioAssay (NCI).
Several values for one entry are separate records, joined by “and”; a condition that tells them apart may be missing. Equal values may be shown once.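 A five-concentration, 48-hour dose response in 96-well plates underlies each endpoint, interpolated linearly between surrounding concentrations. GI50: concentration for 50% inhibition of growth. The concentration for full growth arrest is given as TGI.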

Tests used:
Assay in all cases: growth of human tumour cells (NCI), 48 h
A498 renal = test system: A498 renal
CAKI-1 renal = test system: CAKI-1 renal
SK-MEL-2 melanoma = test system: SK-MEL-2 melanoma
HL-60(TB) leukemia = test system: HL-60(TB) leukemia
SK-MEL-5 melanoma = test system: SK-MEL-5 melanoma
M14 melanoma = test system: M14 melanoma
COLO 205 colon = test system: COLO 205 colon
LOX IMVI melanoma = test system: LOX IMVI melanoma
SK-MEL-28 melanoma = test system: SK-MEL-28 melanoma
RPMI-8226 leukemia = test system: RPMI-8226 leukemia

Row | SMILES | GI50 (A498 renal) [µM] | TGI (A498 renal) [µM] | GI50 (CAKI-1 renal) [µM] | TGI (CAKI-1 renal) | GI50 (SK-MEL-2 melanoma) [µM] | TGI (SK-MEL-2 melanoma) [µM] | GI50 (HL-60(TB) leukemia) [µM] | TGI (HL-60(TB) leukemia) | GI50 (SK-MEL-5 melanoma) [µM] | TGI (SK-MEL-5 melanoma) | GI50 (M14 melanoma) [µM] | TGI (M14 melanoma) | GI50 (COLO 205 colon) [µM] | TGI (COLO 205 colon) [µM] | GI50 (LOX IMVI melanoma) [µM] | TGI (LOX IMVI melanoma) | GI50 (SK-MEL-28 melanoma) [µM] | TGI (SK-MEL-28 melanoma) | TGI (RPMI-8226 leukemia) | GI50 (RPMI-8226 leukemia) [µM]
1 | O=C(O)CCN1C(=O)/C(=C/C(Cl)=C/c2ccccc2)SC1=S | 1.97 | 3.62 | 2.2 | 5.62 µM | 2.16 | 6.27 | 1.85 | 7.64 µM | 1.84 | 3.47 µM | 2.24 | 8.32 µM | 2.86 | 6.71 | 1.5 | 3.04 µM | 2.11 | 5.33 µM | – | –
2 | S=C1OC2C3C4CC5C3C(O1)C1C5C4C21 (stereo not drawn) | – | > 100 | – | > 100 µM | – | – | – | > 100 µM | – | > 100 µM | – | > 100 µM | – | > 100 | – | > 100 µM | – | > 100 µM | > 100 µM | –
3 | OCC(O)C(OC1OC(CO)C(O)C(O)C1O)c1nn(-c2ccc(F)cc2)c2nc3cc(Cl)c(Cl)cc3cc12 (stereo not drawn) | – | > 100 | – | – | – | – | – | – | – | – | – | > 100 µM | – | – | – | > 100 µM | – | > 100 µM | > 100 µM | –
4 | C(=C1/CCCCC([n+]2ccccc2)=N1)/c1ccccc1 | – | – | – | > 100 µM | – | > 100 | – | > 100 µM | – | – | – | > 100 µM | – | > 100 | – | > 100 µM | – | > 100 µM | > 100 µM | –
5 | NC(=O)c1ccc(-c2c3ccccc3cc3c2ccc2ccccc23)cc1 | 3.71 | 24 | 4.54 | 52.8 µM | – | – | 2.14 | > 100 µM | 3.1 | 14 µM | 2.04 | 20.1 µM | 3.82 | 36.5 | 4.86 | 32.6 µM | 4.39 | 36 µM | 40.7 µM | 5.6
6 | C[C@H]1CC(=O)[C@@]2(O)C#C/C=C\C#C[C@@H]3Nc4c(cc(O)c5c4C(=O)c4ccccc4C5=O)[C@]24O[C@]314 | – | 0.217 | 0.0025 | 0.0597 µM and 0.0512 µM | – | – | 0.0025 | 0.00552 µM and 0.0052 µM | – | 0.123 µM and 0.0412 µM | 0.0025 | 0.0645 µM and 0.0371 µM | – | 0.342 | 0.0025 | 0.18 µM and 0.326 µM | 0.0409 | 0.241 µM and 0.729 µM | 0.249 µM and 0.154 µM | 0.00313
7 | C=C(C)[C@@H]1CC[C@]2(C#N)CC[C@]3(C)[C@H](CC[C@@H]4[C@@]5(C)CCCNC(C)(C)[C@@H]5CC[C@]43C)[C@@H]12 | 10.1 | 23 | 3.2 | 11.5 µM | 2.1 | 3.94 | – | – | 1.71 | 3.08 µM | 1.83 | 3.49 µM | 1.96 | 3.51 | 1.67 | 3.04 µM | 1.92 | 3.5 µM | – | –
8 | N#CC(C#N)=C/C=C/c1cccc([N+](=O)[O-])c1 | 1.99 | 5.21 | 0.457 | 4 µM | – | – | 0.345 | 5.38 µM | 1.35 | 2.66 µM | 0.658 | 2.18 µM | 1.26 | 3.26 | 0.913 | 2.37 µM | 1.38 | 3.23 µM | 9.6 µM | 1.59
9 | C=C1C(=O)C23C(CC(OC(C)=O)C1[C@@H]2OC(C)=O)C1(C)C(OC(C)=O)CCC(C)(C)C1C[C@@H]3OC(C)=O (stereo partly drawn) | – | 3.4 | – | 1.94 µM | – | 3.37 | – | 2.51 µM | – | 3.33 µM | – | 2.92 µM | – | – | – | 2.63 µM | – | 3.3 µM | 4.68 µM | –
10 | C[P+](C)(CC(F)(F)F)c1ccccc1 | – | > 100 | – | – | – | > 100 | – | > 100 µM | – | > 100 µM | – | > 100 µM | – | > 100 | – | > 100 µM | – | – | > 100 µM | –
11 | COc1ccc2c(c1)[n+]([O-])c(-c1ccc(Cl)c(Cl)c1)c(N)[n+]2[O-] | – | > 100 | – | > 100 µM | – | > 100 | – | 61 µM | – | 31.5 µM | – | 72.2 µM | – | 33.6 | – | – | – | > 100 µM | > 100 µM | –
12 | CCOc1ccc(N2C(N)=NC(N)=NC2(C)C)cc1 | – | – | > 100 | > 100 µM | > 100 | > 100 | 72 | > 100 µM | 40.8 | > 100 µM | – | – | 69.9 | > 100 | 45.8 | > 100 µM | 53.7 | > 100 µM | > 100 µM | > 100
13 | CCOC(=O)c1cc2cc([N+](=O)[O-])ccc2oc1=O | – | > 100 | – | > 100 µM | – | – | – | > 100 µM | – | > 100 µM | – | > 100 µM | – | > 100 | – | > 100 µM | – | > 100 µM | > 100 µM | –
14 | CCn1c(-c2cc3ccccc3cc2OC(=O)c2ccccc2)n[nH]c1=S | – | – | 24.7 | > 50 µM | 25.5 | > 50 | 32.7 | > 50 µM | 19.8 | > 50 µM | > 50 | > 50 µM | > 50 | > 50 | 26.6 | > 50 µM | > 50 | > 50 µM | 23.8 µM | 9.96
15 | Cc1ccc(NC(=O)CCC(=O)C(C#N)c2ccc(Cl)cc2)cc1C (stereo not drawn) | – | > 100 | – | > 100 µM | – | > 100 | – | > 100 µM | – | > 100 µM | – | > 100 µM | – | – | – | > 100 µM | – | > 100 µM | > 100 µM | –
16 | Nc1nc(Cl)cc(NCCCCCCCCCCNc2cc(Cl)nc(N)n2)n1 | – | – | – | > 100 µM | – | > 100 | – | 34.6 µM | – | 4.47 µM | – | > 100 µM | – | > 100 | – | 24.2 µM | – | – | 91.4 µM | –
17 | COCCn1cc(-c2csc(-c3c[nH]c4ccc(F)cc34)n2)c2cccnc21 | 3.26 | 9.4 | 9.54 | > 100 µM | 3.89 | > 100 | – | – | 2.69 | > 100 µM | 3.14 | > 100 µM | 2.69 | > 100 | 3.44 | > 100 µM | 7.73 | > 100 µM | – | –
18 | COc1cc(C(N)=O)c(OC)c(OC)c1OC | – | > 100 | – | – | – | > 100 | – | > 100 µM | – | > 100 µM | – | > 100 µM | – | > 100 | – | > 100 µM | – | > 100 µM | > 100 µM | –
